This note sets out measurements from PMC5675611, “GZD824 suppresses the growth of human B cell precursor acute lymphoblastic leukemia cells by inhibiting the SRC kinase and PI3K/AKT pathways” (Oncotarget, 2016).

Structures are written as SMILES.

The test system of one test is primary pre-B ALL cells. As to the kind of experiment: Annexin V apoptosis of primary pre-B ALL cells. Format: cell-based, human. How it is done:
Human pre-B ALL cells were obtained from spleen (SP) of sick pre-B ALL xenograft mice. Human CD45+ pre-B ALL cells, accounting for over 95% of the total SP mononuclear cells, were subjected in vitro assay. To determine the in vitro anticancer efficacy of GZD824, the drug was applied to fresh splenic pre-B ALL cells that were directly isolated from sick pre-B ALL xenograft mice in 3 independent experiments. In addition, fresh splenic cells were analyzed 24 hours post drug treatment. At this time point about 20% of the total cells in the vehicle group are apoptotic. […] All cells were cultured at 37°C in 5% carbon dioxide and a normal level of oxygen.
(§1) For identification of apoptotic cells among NALM6, SUPB15, and primary pre-B ALL cells, the GZD824-treated cells were stained with Annexin V Apoptosis Detection Kit (88-8007, BD ebioscience, CA, USA) according to the manufacturer's instructions (Affymetrix ebioscience, CA, USA) and then subjected to flow cytometric analysis by the Accuri™ C6 (BD Biosciences, CA, USA). For the in vitro drug sensitivity test in Figure 6A, the human CD45+ cells in spleen and bone marrow from sick mice account for over 95% of the total. We enriched human CD45+ cells in PB by MACS according to the manufacturer's instruction. After the enrichment, the purity of human CD45+ cell in PB reached 95%. The percentage of apoptotic cells was demarcated as the amount of both early and late facets of apoptosis (annexin V positive), as previously described. All data were analyzed with FlowJo software (Tree Star, Inc., Ashland, USA).

The next test has as its system SUPB15. As to the kind of experiment: CCK8 viability / proliferation assay. The following applies: Homo sapiens, SUP-B15, 24 h, read-out: IC50, inhibition of proliferation. Format: cell-based. How it is done: (§2) Viability was calculated relative to time-matched untreated controls. D824 is short for GZD824 in the following figure. B. Left: representative flow cytometric analysis of NALM6 and SUPB15 cells treated with DMSO, 1μM, or 3μM of GZD824 for 24 hours. Right: Statistical analysis of AnnexinV-positive cells in GZD824 treated NALM6 and SUPB15 cells. C. Left: representative images of cell cycle distribution in NALM6 and SUPB15 cells treated with DMSO or 3μM of GZD824 for 24 hours. Right: Statistical analysis of the distribution of cells in G0/G1 phases in GZD824 treated cells. Data are shown as the mean ± SEM (error bars) from three independent experiments. Significance values: ^*P<0.05; ^**P<0.01; ^***P<0.001. […] For each plot they are listed in the order upper left, upper right, lower left, lower right.

The next test relates to NALM6. As to the kind of experiment: CCK8 viability / proliferation assay. It is filed as cell-based. To be noted: Homo sapiens, NALM-6, 24 h, read-out: IC50, inhibition of proliferation. How it is done: as §2
For test [1], the system named is NALM6 cells. As to the kind of experiment: Cell-cycle analysis (PI staining, flow cytometry). Format: cell-based, human. On the procedure:
Human pre-B ALL cell lines NALM6 and SUPB15 were purchased from American Type Culture Collection (ATCC, Maryland, USA). All pre-B ALL cell lines were maintained in cell culture media and conditions as recommended by the ATCC. Cells were treated with GZD824 for 24 hours. GZD824 (3μM, 1μM, or 0.5μM) was used in the experiments unless otherwise noted. NALM6 and SUPB15 cells were maintained in RPMI-1640 medium (Gibco, New York, NY, USA) with 10% fetal bovine serum (Biochrom, Melbourne, Australia). Cell cycle analysis was performed by flow cytometry after propidium iodide (PI) staining as described. Approximately 2 × 10^6 cells were suspended in 0.5 ml of phosphate-buffered saline (PBS) and vortexed with 3 ml of 80% ethanol. Cells were fixed at 4°C for 1 hr, washed with PBS, re-suspended in PBS, and vortexed vigorously. Cells were re-suspended in 1 ml of PBS containing 50 μg/ml of DNase-free RNase A (EN0531, Thermo Fisher scientific, Waltham, USA) and 50 μg/ml of propidium iodide PI (P4170, Sigma Aldrich, St. Louis, MO, USA). Cells were stained for at least 1 hr at room temperature in the dark. Stained cells were then subjected to flow cytometric analysis by an Accuri™ C6 (BD Biosciences, CA, USA).
(Flow cytometry measures light scatter and fluorescence of single cells or particles in a stream.)

Test [2] concerns STAT3 target genes (BCL-XL, CCND1, CDK4, CDKN1A). Kind of test: qRT-PCR of STAT3 target genes. Format: cell-based, human. To be noted: 3 μM, 24 hours, normalized to GAPDH, vs control. On the procedure:
Figure 5 GZD824 inhibits the SRC kinase in pre-B ALL cells A-C. Western blot analysis of […]-treated NALM6 cells. Cells were treated with DMSO, GZD824 (1μM), or GZD824 (3μM) for 24 hours. Lysates were analyzed with antibodies to (A) phospho-SRC and SRC; (B) phospho-STAT3 and STAT3; and (C) phospho-Rb, Rb, and C-Myc. D. qRT-PCR products of BCL-XL, CCND1, CDK4, and CCK[…] mRNA were normalized to GAPDH and presented as fold increase or decrease compared to control, 24 hours after treatment with 3 μM GZD824. E. NALM6 cells were treated with GZD824, SRC inhibitor (KX2-391), STAT3 inhibitor (HO-3867), or DMSO for 24 hours. Statistical analysis of Annexin V-positive cells in 3μM of drug treated NALM6 cells. All data from independent experiments are presented as mean ± SEM. Significance values: ^*P<0.05; ^**P<0.01; ^***P<0.001. RNA was extracted using TRIzol reagent (15596-026, Invitrogen, Grand Island, NY, USA), according to the manufacturer's recommended protocol. qRT-PCR was performed using Applied Biosystems StepOne and StepOne Plus Real-Time PCR Systems (Foster City, CA, USA). The experiments were repeated a minimum of three times to confirm the results.
(In qPCR the cycle at which signal appears reflects the starting amount.)

In test [3] the test system is NALM6 cells. As to the kind of experiment: Annexin V apoptosis flow cytometry. Format: cell-based, human. On the procedure: Human pre-B ALL cell lines NALM6 and SUPB15 were purchased from American Type Culture Collection (ATCC, Maryland, USA). All pre-B ALL cell lines were maintained in cell culture media and conditions as recommended by the ATCC. Cells were treated with GZD824 for 24 hours. GZD824 (3μM, 1μM, or 0.5μM) was used in the experiments unless otherwise noted. NALM6 and SUPB15 cells were maintained in RPMI-1640 medium (Gibco, New York, NY, USA) with 10% fetal bovine serum (Biochrom, Melbourne, Australia).
as §1

For `Cc1ccc(C(=O)Nc2ccc(CN3CCN(C)CC3)c(C(F)(F)F)c2)cc1C#Cc1cnc2[nH]ncc2c1` [GZD824], the “percentages of apoptotic cells” value in the test with primary pre-B ALL cells (all five patient samples (P#1-P#5), 1μM, vs DMSO) was “significantly increased”. Moreover, in the test on primary pre-B ALL cells (cells from P#2 xenograft mice, 1μM GZD824, 24 hours in vitro), the “percentages of apoptotic pre-B ALL cells derived from BM compared to those from SP and PB” value is on record as “significantly lower”. For the same molecule, the “apoptotic levels, GZD824 alone vs both GZD824 and IGF-1” value in the test on primary pre-B ALL cells (primary pre-B ALL cells from spleen of P#1 xenograft mouse, GZD824 1μM, IGF-1 10ng/ML) is “much higher apoptotic levels”. For the same molecule, the IC50 in the test with SUPB15 was more than 500 nM. In addition, in the test with NALM6, the IC50 was determined as 500 nM. The “proportions of the G0/G1 fraction” value in the test on NALM6 cells [1] (NALM6, 500 nM) is “increased”. For the same molecule, the “percentage of the G0/G1 fraction” value in the test with NALM6 cells [1] (NALM6, 3μM, 24 hours) turned out to be 71.6%. Also, in test [2], the “BCL-XL mRNA expression” value is recorded as “downregulation”, the “CCKN1A (CDKN1A) mRNA expression” value is “upregulated”, the “CCND1 mRNA expression” value was “downregulation” and the “CDK4 mRNA expression” value is on record as “downregulation”. Moreover, the “percentages of apoptotic cells” value in the test with NALM6 cells [3] (NALM6, 500 nM) is recorded as “did not increase”. In addition, the apoptotic rate result in the test on NALM6 cells [3] (NALM6, 1μM, 24 h) was “moderate”. For the same molecule, the “apoptosis (Annexin V-positive cells), comparison of inhibitors” value in the test with NALM6 cells [3] (NALM6, 3μM of drug, 24 hours, Fig 5E) is reported as “significantly increased apoptotic level”. For the same molecule, the “cells undergoing apoptosis (AnnexinV+)” value in the test on NALM6 cells [3] (NALM6, 3μM, 24 h) amounted to 74.4%.
